Values quoted from earlier work as cited in the CATMoS acute toxicity set (Mansouri et al. 2021).
“And” between values parts separate entries of the source, which are not always exact repeats. Identical values can stand only once.

Experiment: rat acute oral toxicity
Settings: in vivo

First: CCC1(CCC(C)C)C(=O)N=C(O)NC1=O (centres undefined)
Second: CC(C)Cc1cccc2c(CC(=O)O)cccc12
The LD50 of the first is 2.2-fold lower: 275 mg/kg for the first, 600 mg/kg for the second.

Compared with `C=CC(C)=CCCC(C)(C)O`, `C=CC(=O)OCCCOCC` is 2.1-fold lower in LD50: 1700 mg/kg for the first, 820 mg/kg for the second.

Going from `CC1(C)N=C(N)N=C(N)N1c1ccccc1` to `CCC(C)c1ccccc1` (centres undefined), the LD50 rises from 447 mg/kg to 2240 mg/kg (5-fold).

Compared with `CC1=CC(=O)/C(=C(/C)O)C(=O)O1`, `CC1=CC(=O)C(C(C)C)CC1` (centres undefined) is 4.9-fold higher in LD50: 500 mg/kg for the first, 2450 mg/kg for the second.

Compared with `O=P(O)(O)Oc1ccccc1`, `O=C(O)c1ccc2ccccc2c1` is 2-fold higher in LD50: 2290 mg/kg for the first, 4500 mg/kg for the second.

Going from `O=C(O)CN(CCN(CC(=O)O)CC(=O)O)CCN(CC(=O)O)CC(=O)O` to `CC(=O)CCC(=O)O`, the LD50 falls from 4550 mg/kg to 1850 mg/kg (2.5-fold).

Compared with `COc1ccc2c(c1)OC(C)(C)[C@H](c1ccccc1)[C@H]2c1ccc(OCCBr)cc1`, `COc1ccc2c(-c3ccc(OCC(O)CNC(C)C)cc3)c(-c3ccccc3)c(=O)oc2c1` (centres undefined) is 2-fold higher in LD50: 500 mg/kg for the first, 1000 mg/kg for the second.

First: Cc1c(Cl)c(Cl)c(Cl)c2[nH]c(C(F)(F)F)nc12
Second: O=S(=O)(O)c1c(Cl)c(Cl)c(Cl)c2[nH]c(C(F)(F)F)nc12
The LD50 of the first is 34-fold lower: 6.49 mg/kg for the first, 218 mg/kg for the second.

`O=C1C=Cc2cc(Br)ccc2C1=O` and `CC(=O)c1cccc([N+](=O)[O-])c1` are within 1.5-fold of each other in LD50: 3900 mg/kg for the first, 3250 mg/kg for the second.

Compared with `O=[N+]([O-])c1ccc(Sc2ccc([N+](=O)[O-])cc2)cc1`, `O=C=Nc1ccc(Cc2ccc(N=C=O)cc2)cc1` is 6.2-fold higher in LD50: 1490 mg/kg for the first, 9200 mg/kg for the second.

Compared with `N#CC(F)(F)C(F)(F)C(F)(F)C#N`, `N#CCCC#N` is 5.8-fold lower in LD50: 2600 mg/kg for the first, 450 mg/kg for the second.

`CC(C)CCCCCCO` and `CCCCCC(C)O` (centres undefined) are within 1.5-fold of each other in LD50: 2980 mg/kg for the first, 2580 mg/kg for the second.

Compared with `O=C(OCC(O)C1COc2ccccc2O1)N1CCOCC1` (centres undefined), `c1ccc2c(c1)Sc1ccccc1N2CCCN1CCOCC1` is 1.5-fold lower in LD50: 1500 mg/kg for the first, 1000 mg/kg for the second.

First: NC(N)=[Se]
Second: CCOC(=S)SCC#N
The LD50 of the first is 4.2-fold lower: 50 mg/kg for the first, 210 mg/kg for the second.

Compared with `Cc1nc(C)c(C)nc1C`, `CNC(=O)Oc1ccc(N=CN(C)C)c(C)c1` is 270-fold lower in LD50: 1910 mg/kg for the first, 7.2 mg/kg for the second.

`Cc1ccc(C(=O)c2ccc(CC(=O)NNCC(=O)N3CCN(C)CC3)n2C)cc1` and `CN(CCO)Cc1cc(C(=O)c2cccs2)cc(C(C)(C)C)c1O` are within 1.5-fold of each other in LD50: 978 mg/kg for the first, 1000 mg/kg for the second.

Compared with `CON(C(=O)c1cc(C)oc1C)C1CCCCC1`, `COP(=S)(OC)Oc1ccc2c(C)cc(=O)oc2c1` is 240-fold lower in LD50: 3780 mg/kg for the first, 15.6 mg/kg for the second.

Compared with `BrC=Cc1ccccc1`, `CC(=O)C=Cc1ccc(-c2ccccc2)cc1` is 1.8-fold higher in LD50: 1250 mg/kg for the first, 2230 mg/kg for the second.

Compared with `CCN1CCNCC1`, `C=CCN1CC[C@]23c4c5ccc(O)c4O[C@H]2[C@@H](O)C=C[C@H]3[C@H]1C5` is 1.9-fold lower in LD50: 2160 mg/kg for the first, 1150 mg/kg for the second.

`FC(F)(F)c1nc2c(Br)c(Br)c(Cl)c(Br)c2[nH]1` and `FC(F)(F)c1nc2c(Br)c(Cl)c(Br)cc2[nH]1` are within 1.5-fold of each other in LD50: 8.32 mg/kg for the first, 8.47 mg/kg for the second.

First: CCCCCCCCCCCCCCCCOC(=O)Cc1ccc(N(CCCl)CCCl)cc1
Second: CCCCCCCC(=O)OCC
The LD50 of the first is 260-fold lower: 100 mg/kg for the first, 26000 mg/kg for the second.

Going from `Cc1cc(Cl)cc(O)c1O` to `COP(=O)(OC)OC(=C(Br)Br)c1ccc(Cl)cc1Cl`, the LD50 falls from 1410 mg/kg to 180 mg/kg (7.8-fold).

Compared with `CCOP(=S)(OCC)SC1CCSc2ccc(Cl)cc21` (centres undefined), `CCN(CC)CCC(=O)N1c2ccccc2Sc2ccc(C(F)(F)F)cc21` is 14-fold higher in LD50: 63 mg/kg for the first, 860 mg/kg for the second.

Going from `C=CC[C@@H]1C=C(C)C[C@H](C)C[C@H](OC)[C@H]2O[C@@](O)(C(=O)C(=O)N3CCCC[C@H]3C(=O)O[C@H](C(C)=C[C@@H]3CC[C@@H](O)[C@H](OC)C3)[C@H](C)[C@@H](O)CC1=O)[C@H](C)C[C@@H]2OC` to `CO[C@@H]1[C@@H](O[C@@H]2O[C@H](C)[C@@H](O[C@H]3C[C@@](C)(O)[C@@H](OC(=O)CC(C)C)[C@H](C)O3)[C@H](N(C)C)[C@H]2O)[C@@H](CC=O)C[C@@H](C)[C@@H](O)C=CC=CC[C@@H](C)OC(=O)C[C@H]1O`, the LD50 rises from 134 mg/kg to 6990 mg/kg (52-fold).

First: O=[N+]([O-])c1cc(Cl)c2nc(C(F)(F)F)[nH]c2c1
Second: FC(F)(F)c1ccccc1Br
The LD50 of the first is 280-fold lower: 9.87 mg/kg for the first, 2720 mg/kg for the second.

First: OCCNCC(O)CNCCO
Second: CCCNC(=O)C(C)Nc1ccc(OCC)cc1 (centres undefined)
The LD50 of the first is 2.4-fold higher: 7200 mg/kg for the first, 3000 mg/kg for the second.

First: C[C@H]1O[C@@H](n2cc(F)c(=O)[nH]c2=O)[C@H](O)[C@@H]1O
Second: CNC(=O)Oc1ccc(NC(=O)C(F)(F)Cl)c(C)c1
The LD50 of the first is 70-fold higher: 3390 mg/kg for the first, 48.5 mg/kg for the second.

Going from `CC/C(=C(\c1ccccc1)c1ccc(OCCN(C)C)cc1)c1ccccc1` to `c1ccc(Nc2ccc(Nc3ccccc3)cc2)cc1`, the LD50 falls from 4100 mg/kg to 2370 mg/kg (1.7-fold).

`O=C1N=C2c3ccccc3N=CN2C1=Cc1ccccc1` and `CS(=O)(=O)OCCCN(CCCOS(C)(=O)=O)Cc1ccccc1` are within 1.5-fold of each other in LD50: 325 mg/kg for the first, 375 mg/kg for the second.

First: CC(C)CCCC(C)N (centres undefined)
Second: CC(=O)OC1CC(C)CCC1C(C)C (centres undefined)
The LD50 of the first is 14-fold lower: 538 mg/kg for the first, 7620 mg/kg for the second.

First: CC(Cl)(Cl)Cl
Second: CC(=O)N(C)C(=O)Oc1cccc(C(C)(C)C)c1
The LD50 of the first is 9.6-fold higher: 9600 mg/kg for the first, 1000 mg/kg for the second.

Going from `COP(=S)(OC)SC` to `CCOC(=O)COc1ccc2c(C)c(CCN(CC)CC)c(=O)oc2c1Cl`, the LD50 rises from 15 mg/kg to 1250 mg/kg (83-fold).

First: CC(=O)C(N=Nc1cc(Cl)c(-c2cc(Cl)c(N=NC(C(C)=O)C(=O)Nc3ccc(C)cc3C)cc2Cl)cc1Cl)C(=O)Nc1ccc(C)cc1C (centres undefined)
Second: BrCC=CCBr
The LD50 of the first is 30-fold higher: 2230 mg/kg for the first, 75 mg/kg for the second.

For `CC#CCC(C)[C@H](O)/C=C/[C@@H]1[C@H]2c3cccc(CCCC(=O)O)c3O[C@H]2C[C@H]1O` (some centres undefined), the LD50 is given as 12 mg/kg and 11.6 mg/kg.
For `O=C(O)c1cc(Cl)cc([N+](=O)[O-])c1Cl`, the LD50 is given as 2640 mg/kg and 3500 mg/kg.
For `O=NN(O)c1ccccc1`, the LD50 is listed as 199 mg/kg and 490 mg/kg.
